Literature values as cited in patent US10717749B2, “Macrocyclic sulfondiimine compounds” (BAYER PHARMA AKTIENGESELLSCHAFT, priority 2015, dated 2020).

Conditions: in vivo; cited from earlier work

## C[N+]1(C)[C@@H]2C[C@@H](OC(=O)C(O)(c3cccs3)c3cccs3)C[C@H]1[C@@H]1O[C@@H]12 [tiotropium]
  duration of protection against bronchospasms: more than 6 hours
